Experiment in all cases: DTP human tumour cell line panel, 48 h
The subject of experiment [1] is BT-549 breast.
Experiment [2] deals with NCI/ADR-RES ovarian.
In experiment [3] the test system is XF 498 CNS.
Experiment [4] deals with SNB-78 CNS.
In experiment [5] the test system is DLD-1 colon.
Experiment [6] has as its system M19-MEL melanoma.
In experiment [7] the test system is DMS 114 small cell lung.
The test system of experiment [8] is HOP-18 NSCLC.

Each structure is given as a SMILES string. Values joined by “and” are separate entries in the source; they are usually repeats but may differ in a detail not shown here. Identical values can stand only once.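 Step 1: Grow cells in 96-well plates. Step 2: Expose to compound for 48 hours at 5 concentrations. Step 3: Interpolate endpoints linearly; if unreached, use highest concentration. GI50 is the concentration that inhibits growth by half. TGI marks complete inhibition of growth.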

Take `Cc1ccc(C(=O)Nc2ccc(CN3CCN(C)CC3)c(C(F)(F)F)c2)cc1C#Cc1cnc(N)c2ccc(F)cc12`: the GI50 (as a rule, the concentration giving 50% growth inhibition) in experiment [1] is 1.31 µM; in experiment [2], 0.436 µM. Further, the TGI (commonly the concentration giving total growth inhibition) worked out at 4.33 µM in experiment [1] and 2.09 µM in experiment [2].

For `Cc1nc2c(n1CC(C)(C)C)C(=O)c1ccccc1C2=O`, the TGI in experiment [3], in experiment [4] and in experiment [5] was above 100 µM each time.

In the case of `Cn1cc(C2=C(c3cn(C)c4ccc(N)cc34)C(=O)NC2=O)c2ccccc21`, in experiment [1], the GI50 was 7.12 µM and the TGI is above 25 µM. In experiment [2], the GI50 was 10.3 µM and the TGI is above 25 µM.

As for `CC1(C)N=C(N)N=C(N)N1c1ccc(CCc2ccccc2)c(Cl)c1`, in experiment [1], the GI50 was 1.11 µM and the TGI amounted to 12.5 µM. Besides, in experiment [2], the GI50 was 37 µM and the TGI was above 100 µM.

For `CNC(=O)Nc1ccc(-c2nc(N3CCOCC3)nc3c2cnn3C2CCOCC2)cc1`, in experiment [1], the GI50 is 0.132 µM and the TGI was found to be 2.08 µM. In addition, in experiment [2], the GI50 is 0.511 µM and the TGI is above 22.5 µM.

Consider `O=C(CC(C(=O)c1cccs1)c1ccc2c(c1)OCO2)c1ccc(Br)cc1` (stereo unspecified), for which the TGI in experiment [2] was above 100 µM.

In the case of `O=C(Nc1ccc(OC(F)(F)F)cc1)c1sccc1NCc1ccnc2ccccc12`, in experiment [1], the GI50 is 6.9 µM and the TGI came out at 51.5 µM. In experiment [2], the GI50 was 2.81 µM and the TGI was above 100 µM.

Turning to `CCc1nc(N)nc(N)c1-c1ccc([N+](=O)[O-])c(NCc2ccccc2)c1`, the TGI in experiment [1] was determined as 47.1 µM; in experiment [2], 38.2 µM.

Consider `N#CC(C#N)SCc1ccccc1`, for which the TGI is above 100 µM in experiment [2]; above 91.7 µM in experiment [4]; above 100 µM in experiment [6]; 60.1 µM in experiment [7]; above 100 µM in experiment [5].

Take `CC[C@H](C)[C@H](NC(=O)c1cnccn1)C(=O)N(C)[C@H](C[C@@H](OC(C)=O)c1nc(C(=O)N[C@@H](Cc2ccccc2)C[C@H](C)C(=O)OC)cs1)C(C)C`: in experiment [2], the GI50 was 2.81 µM and the TGI was above 33.3 µM.

On to `NS(=O)(=O)c1ccc(N2Cc3cc(Cl)ccc3OC3=C2C(=O)N(CC2CCCCC2)C3=O)cc1`, for which, in experiment [1], the GI50 was 0.546 µM and the TGI was determined as 1.97 µM. For the same compound, in experiment [2], the GI50 is 1.74 µM and the TGI came to 5.05 µM.

In the case of `CN1C2CC(C#N)C1C=CC2=O` (stereo unspecified), in experiment [1], the GI50 is 38.7 µM and > 100 µM; the TGI is 75.1 µM and > 100 µM. In experiment [2], the GI50 was 25.7 µM and > 100 µM; the TGI was 82.9 µM and > 100 µM.

On to `COc1cc2cc(Oc3ccc(NC(=O)c4cccc(C(F)(F)F)c4)cc3)c(C)nc2cc1OC`, for which, in experiment [1], the GI50 is 3.31 µM and the TGI is above 100 µM. In experiment [2], the GI50 is 4.02 µM and the TGI was above 100 µM.

For the compound `CN1CCCN(CCNc2nccc(-c3c(-c4cccc(O)c4)nc4sccn34)n2)S1(=O)=O`, in experiment [1], the GI50 is 9.2 µM and 12.3 µM; the TGI is 58.8 µM and > 78.4 µM. Further, in experiment [2], the GI50 is 22.5 µM and 31.1 µM; the TGI is 75 µM and > 100 µM.

On to `CC(C)(C)OC(=O)NCC(C#N)CNC(=O)OC(C)(C)C`, for which the TGI in experiment [1] and in experiment [2] was above 100 µM throughout.

As to `CCOC(=O)c1c(NC(=O)c2ccc(C(C)C)cc2)sc2c(CN(C)C)c(O)ccc12`, in experiment [1], the GI50 is 2.18 µM and the TGI came to 5.35 µM. Besides, in experiment [2], the GI50 was 1.89 µM and the TGI was 4.52 µM.

As to `COc1cc(/C=C2\CN(C)CC3=C2Nc2nc(SC)[nH]c(=O)c2C3c2cc(OC)c(OC)c(OC)c2)cc(OC)c1OC` (stereo unspecified), in experiment [1], the GI50 is 2.98 µM and the TGI was 8.12 µM. In experiment [2], the GI50 was 3.6 µM and the TGI is above 100 µM.

`Clc1ccc([O][In]([O]c2ccc(Cl)cn2)[O]c2ccc(Cl)cn2)nc1`: the GI50 in experiment [8], in experiment [4], in experiment [6], in experiment [7] and in experiment [5] was above 100 µM in each case. In addition, the TGI in experiment [8], in experiment [4], in experiment [6], in experiment [7] and in experiment [5] was above 100 µM each time.

As for `COc1cc(Nc2ccnc(N3CCN(c4ccnc5cc(Cl)ccc45)CC3)n2)cc(OC)c1`, in experiment [2], the GI50 is 1.1 µM and the TGI came to 5.47 µM.

As to `C[n+]1cc2c3c(ccc2c2ccc4cc5c(cc4c21)OCO5)OCO3`, in experiment [1], the GI50 is 0.784 µM and the TGI was 2.08 µM.

As for `CC(CO)[C@H]1OC(=O)C=C2[C@@]13O[C@@H]3[C@H]1OC(=O)[C@@]3(C)[C@H]4O[C@H]4C[C@@]2(C)[C@@H]13` (stereo partly specified), the TGI in experiment [1] worked out at 8.2 µM.

Take `C[C@]12CC[C@@H]3c4ccc(O)c([N+](=O)[O-])c4CC[C@H]3[C@@H]1CC[C@@H]2NS(=O)(=O)c1ccc(C(F)(F)F)cc1`: in experiment [1], the GI50 was 1.57 µM and the TGI was 3.03 µM. In experiment [2], the GI50 is 1.95 µM and the TGI came to 4.7 µM.

On to `CC(C)n1c(/C=C/[C@@H](O)C[C@@H](O)CC(=O)O)c(-c2ccc(F)cc2)c2ccccc21`, for which, in experiment [1], the GI50 is 5.8 µM and 4.63 µM; the TGI was above 77.6 µM. For the same compound, in experiment [2], the GI50 was 0.554 µM and 0.845 µM; the TGI is above 100 µM.

`CSc1ccc(C2=Nn3c(nnc3-c3ccc(F)c(Cl)c3)SC2)cc1`: in experiment [1], the GI50 is 12.8 µM and the TGI was 50.5 µM. Further, in experiment [2], the GI50 was 5.17 µM and the TGI was 22.6 µM.

On to `S=C(N/N=C/c1cc(Cl)cc(Cl)c1)NC12CC3CC(CC(C3)C1)C2`, for which the GI50 is above 100 µM in experiment [1] and 7.2 µM in experiment [2]. Moreover, the TGI in experiment [1] and in experiment [2] was above 100 µM each time.

As for `CC(=O)c1cccc(N(/C=C/C(=O)C(F)(F)F)CC(=O)c2ccc(Cl)cc2)c1`, in experiment [1], the GI50 is above 100 µM and the TGI is above 100 µM. Also, in experiment [2], the GI50 was above 100 µM and the TGI is above 100 µM.

`O=c1oc2ccccc2c(O)c1C=NC(=S)c1ccncc1`: the figures for the TGI in experiment [1] and in experiment [2] were 94 µM and above 100 µM, respectively.

The values are drawn from PubChem BioAssay (NCI).
